Measurements from US20250084094A1 (Vertex Pharmaceuticals Incorporated, priority 2021, published 2025).

Molecular target: T1, APOL1 (Homo sapiens, UniProt O14791)
T1 sequence (O14791 1-398 S342G/I384M): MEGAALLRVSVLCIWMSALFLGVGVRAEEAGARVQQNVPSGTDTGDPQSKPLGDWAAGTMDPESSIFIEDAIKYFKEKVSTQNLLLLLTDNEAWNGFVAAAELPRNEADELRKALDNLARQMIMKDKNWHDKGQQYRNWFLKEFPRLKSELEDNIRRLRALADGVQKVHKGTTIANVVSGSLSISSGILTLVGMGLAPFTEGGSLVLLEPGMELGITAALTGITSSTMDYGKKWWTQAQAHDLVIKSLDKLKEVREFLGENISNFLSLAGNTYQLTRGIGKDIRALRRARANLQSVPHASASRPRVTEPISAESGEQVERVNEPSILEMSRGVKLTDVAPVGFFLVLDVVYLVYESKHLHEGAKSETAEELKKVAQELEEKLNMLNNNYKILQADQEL
Assay: MultiTox-Fluor Multiplex Cytotoxicity Assay in tet-inducible APOL1 T-REx-HEK293 cells
Type: cell-based
Details: tet-inducible transgenic APOL1 T-REx-HEK293 cell lines, 50 ng/mL tet, 24 hours, ratio of dead to live cells; read-out: IP50 (nM) (i.e., IC50 for cell proliferation)
Experimental: The MultiTox-Fluor Multiplex Cytotoxicity Assay is a single-reagent-addition, homogeneous, fluorescence assay that measures the number of live and dead cells simultaneously in culture wells. The assay measures cell viability and cytotoxicity by detecting two distinct protease activities. The live-cell protease activity is restricted to intact viable cells and is measured using a fluorogenic, cell-permeant peptide glycyl-phenylalanylamino fluorocoumarin (GF-AFC) substrate. The substrate enters intact cells, where it is cleaved to generate a fluorescent signal proportional to the number of living cells. […] A second, cell-impermeant, fluorogenic peptide substrate (bis-AAF-R110 Substrate) is used to measure dead-cell protease that has been released from cells that have lost membrane integrity. A ratio of dead to live cells is used to normalize data.
Briefly, the tet-inducible transgenic APOL1 T-REx-HEK293 cell lines were incubated with 50 ng/mL tet to induce APOL1 in the presence of 3-(2-(4-fluorophenyl)-1H-indol-3-yl)-N-((3S,4R)-4-hydroxy-2-oxopyrrolidin-3-yl)propenamide at 10.03, 3.24, 1.13, 0.356, 0.129, 0.042, 0.129, 0.0045, 0.0015, 0.0005 μM in duplicate for 24 hours in a humidified 37° C. incubator. The MultiTox reagent was added to each well and placed back in the incubator for an additional 30 minutes. The plate was read on the EnVision plate reader. A ratio of dead to live cells was used to normalize, and data was imported, analyzed, and fit using Genedata Screener (Basel, Switzerland) software. Data was normalized using percent of control, no tet (100% viability), and 50 ng/mL tet treated (0% viability),and fit using Smart Fit. The reagents, methods, and complete protocol for the MultiTox assay are described below.
Human embryonic kidney (HEK293) cell lines containing a tet-inducible expression system (T-REx™; Invitrogen, Carlsbad, CA) and Adeno-associated virus site 1 pAAVS1-Puro-APOL1 G0 or pAAVS1-Puro-APOL1 G1 or pAAVS1-Puro-APOL1 G2 Clones G0 DC2.13, Gi DC3.25, and G2 DC4.44 were grown in a T-225 flask at ˜90% confluency in cell growth media (DMEM, 10% Tet-free FBS, 2 mM L-glutamine, 100 Units/mL penicillin-streptomycin, 5 μg/mL blasticidin S HCl, 1 μg/mL puromycin dihydrochloride). Cells were washed with DPBS and then trypsinized to dissociate from the flask. Media was used to quench the trypsin, cells were then pelleted at 200 g and resuspended in fresh cell assay media (DMEM, 2% Tet-free FBS, 2 mM L-glutamine, 100 Units/mL penicillin-streptomycin). Cells were counted and diluted to 1.17×10^6 cells/mL. 20 μL of cells (23,400/well) were dispensed in every well of a 384-well Poly-D-Lysine coated plate using the Multidrop dispenser. The plates were then incubated at room temperature for one hour.
Tetracycline is needed to induce APOL1 expression. 1 mg/mL tet stock in water was diluted to 250 ng/mL (5×) in cell assay media. 60 μL of cell assay media (no tet control) was dispensed in columns 1 and 24, and 60 μL of 5× tet in 384-PP-round bottom plate was dispensed in columns 2 to 23 with the Multidrop dispenser.
Assay ready plates from the Global Compound Archive were ordered using template 384_APOLICell_DR10n2_50 uM_v3. Compounds were dispensed at 200 nL in DMSO. The final top concentration was 10 μM with a 10 point 3-fold dilution in duplicate in the MultiTox assay.
20 μL was transferred from the 5× tet plate to the ARP and mixed, then 5 μL of 5× tet and the compounds were transferred to the cell plate and mixed using the Bravo. The cell plate was placed in the humidified 37° C. 5% CO2 incubator for 24 hours.
The MultiTox-Fluor Multiplex Cytotoxicity Assay was performed in accordance with the manufacturer's protocol. After cells were incubated with tet and compound for 24 hours, 25 μL of 1x MultiTox reagent was added to each well using the Multidrop dispenser; the plates were placed on a plate shaker (600 rpm) for 2 minutes, then centrifuged briefly and placed back in the 37° C. incubator for 30 minutes. […]

| SMILES | IC50 [nM] |
| --- | --- |
| C[C@H]1C[C@@]2(C[C@@H](c3cn(C)nn3)N1)C(=O)Nc1cc(Cl)ccc12 [Compound 36, (2′S,3S,6′S)-6-chloro-2′-methyl-6′-(1-methyltriazol-4-yl)spiro[indoline-3,4′-piperidine]-2-one] | < 50 |
| C[C@H]1C[C@@]2(C[C@@H](c3cn(C)nn3)N1)C(=O)Nc1ccc(C(F)(F)F)cc12 [Compound 37, (2′S,3S,6′S)-2′-methyl-6′-(1-methyltriazol-4-yl)-5-(trifluoromethyl)spiro[indoline-3,4′-piperidine]-2-one] | < 50 |
| C[C@H]1C[C@@]2(C[C@@H](c3cn(C)nn3)N1)C(=O)Nc1cc(C(F)(F)F)ccc12 [Compound 38, (2′S,3S,6′S)-2′-methyl-6′-(1-methyltriazol-4-yl)-6-(trifluoromethyl)spiro[indoline-3,4′-piperidine]-2-one] | < 50 |
| C[C@H]1CC2(C[C@@H](c3cn(C)nn3)N1)OC(C(N)=O)c1cc(Cl)ccc12 (stereo partly drawn) [Compound 39, (2′S,6′S)-6-chloro-2′-methyl-6′-(1-methyltriazol-4-yl)spiro[1H-isobenzofuran-3,4′-piperidine]-1-carboxamide] | < 50 |
| C[C@H]1CC2(C[C@@H](c3cn(C)nn3)N1)OC(C(N)=O)c1ccc(Cl)cc12 (stereo partly drawn) [Compound 41, (2′S,6′S)-5-chloro-2′-methyl-6′-(1-methyltriazol-4-yl)spiro[1H-isobenzofuran-3,4′-piperidine]-1-carboxamide] | < 50 |
